In patent US20210113563A1, “4-(4-CYANO-2-THIOARYL)DIHYDROPYRIMIDINONES FOR TREATING CHRONIC WOUNDS” (pH Pharma Co., Ltd., priority 2015, published 2021):

Test: Exposure in plasma and skin of diabetic mouse (db/db)
Assay type: in vivo
Conditions: for Total concentration in skin: day 8; for Total concentration in plasma, geo mean: day 8, 20 h after last treatment
Procedure: Upon scarification on day 8, 20 h after the last treatment, arterial blood samples were collected into EDTA citrate serum sample tubes for LC/MSMS based quantification of compound exposure.

Total concentration in skin (0.03 mg/kg BW o.d. p.o.): 0.01 µM
Total concentration in plasma, geo mean (0.03 mg/kg BW o.d. p.o.): 0.0029 µM
Total concentration in skin (0.1 mg/kg BW o.d. p.o.): 0.03 µM
Total concentration in plasma, geo mean (0.1 mg/kg BW o.d. p.o.): 0.011 µM
Total concentration in skin (0.3 mg/kg BW o.d. p.o.): 0.06 µM
Total concentration in plasma, geo mean (0.3 mg/kg BW o.d. p.o.): 0.027 µM
Total concentration in skin (1.0 mg/kg BW o.d. p.o.): 0.16 µM
Total concentration in plasma, geo mean (1.0 mg/kg BW o.d. p.o.): 0.067 µM
Total concentration in skin (3.0 mg/kg BW o.d. p.o.): 0.30 ± 0.06 µM
Total concentration in plasma, geo mean (3.0 mg/kg BW o.d. p.o.): 0.13 µM
Total concentration in skin (10.0 mg/kg BW o.d. p.o.): 0.54 µM
Total concentration in plasma, geo mean (10.0 mg/kg BW o.d. p.o.): 0.17 µM
SMILES: CC1=C(C#N)[C@@H](c2ccc(C#N)cc2S(C)(=O)=O)N(C)C(=O)N1c1cccc(C(F)(F)F)c1 [Example 5, (4 S)-4-[4-Cyano-2-(methylsulfonyl)phenyl]-3,6-dimethyl-2-oxo-1-[3-(trifluoromethyl)phenyl]-1,2,3,4-tetrahydropyrimidine-5-carbonitrile]
